From patent US8686115B2, “Compositions and methods for quantitatively monitoring lipids” (The Board of Trustees of the University of Illinois, priority 2009, dated 2014)
Residue numbers refer to the chain shown, from its start. Numbers in names are those of the source. Where two headings read alike, the source gives them in different places. Blank lines part the entries; values can stand above or below the molecule they belong to.

Legend:
[1] = molecular target: T1, DAN-eENTH: epsin 1 ENTH domain variant M10C/C96A/S4W, SEQ ID NO: 2, labeled with DAN at C10 (Homo sapiens, UniProt Q9Y6I3, C96A/M10C/S4W); assay: SPR equilibrium binding of DAN-eENTH to phosphoinositide-containing LUVs; details: SPR
T1 construct: The Epsin1 ENTH domain (1-158 amino acids) was subcloned; GST (C, cleaved yes); made in house; host or cells: E. coli BL21 RIL codon plus
T1 sequence (Q9Y6I3 1-158 S4W/M10C/C96A): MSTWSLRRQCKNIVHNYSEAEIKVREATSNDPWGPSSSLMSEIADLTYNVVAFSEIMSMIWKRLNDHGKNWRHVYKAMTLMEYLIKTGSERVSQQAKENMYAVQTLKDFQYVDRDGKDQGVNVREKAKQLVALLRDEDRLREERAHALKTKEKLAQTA
From the text: Provided herein is an ENTH domain of epsin1, which is linked to 2-dimethylamino-6-acyl-naphthalene (DAN). The ENTH domain contains 3 mutations, which are substitutions: M10C, C96A, and S4W. See SEQ ID NO:2. This DAN-eENTH (M10C, C96A, S4W) is an exceptional, high-affinity phosphatidylinositol-4,5-bisphosphate (PtdIns(4,5)P2)-binding protein.
(§1) The ENTH domain was engineered to introduce a single labeling site (M10C) on the membrane binding surface while removing an endogenous Cys (C96A). We also performed the S4W mutation to suppress its residual affinity for another lipid, phosphatidylinositol-3,4,5-trisphosphate (PtdIns(3,4,5)P3) (PtdIns(4,5)P2/PtdIns(3,4,5)P3=4 for wild type and >10 for the mutant) and to enhance the overall affinity for PtdIns(4,5)P2-containing membranes (ca. 4-fold) (Table 1).
(§2) With respect to FIG. 1, an L1 sensor chip was coated with POPC/POPS/PtdIns(4,5)P2 (77:20:3) LUVs. The proteins were incubated with a given concentration of IP3 for 5 minutes before injecting into the SPR instrument. Kinetic SPR measurements were performed in 20 mM Tris-HCL, pH 7.4, containing 0.16 KCl. […] A lower concentration of DAN-eENTH was used than that of PLCδ PH because the former has much higher affinity that the latter.
(§3) All mutations (S4W, M10C, and C96A) were performed by polymerase chain reaction mutagenesis and verified by DNA sequencing. eENTH may comprise the following sequence:
(§4) E. coli BL21 RIL codon plus (Stratagene) cells were used for protein expression. Cells were grown in Luria broth media containing 100 μg/ml of ampicillin at 37° C. 0.1 mM of Isopropyl β-D-1-thiogalactopyranoside was added to induce over-expression of recombinant proteins when the OD600 reached 0.5-0.8 and cells were grown for additional 6 to 10 hours at 25° C. Cells were harvested by centrifugation and cell pellets were resuspended in 50 mM Tris-HCl buffer (pH 7.4) containing 160 mM KCl, 1 mM phenylmethanesulphonylfluoride, and 5 mM of dithiothreitol (DTT). Cells were lysed by sonication and the lysate was collected by centrifugation at 4° C. The GST-affinity resin (GenScript) for GST-tagged proteins or nickel-nitrilotriacetic acid resin (Qiagen, Valencia, Calif.) for His6-tagged proteins was added into the cell lysate and the mixture was gently shaken for 30 minutes at 4° C. The mixture was applied to a column and the column was washed once with 50 mM Tris-HCl buffer (pH 7.4) containing 160 mM KCl and 5 mM of DTT to reduce thiol group, and washed several times with the same buffer without DTT to remove DTT. For DAN labeling, 100 μg of acrylodan was added to the column at this stage and incubated 16 hours at 4° C. The excess acrylodan was removed by washing the column with the buffer several times. Thrombin (Invitrogen) was added to column to remove the GST tag and the mixture was incubated at 4° C. for 10 hours. The labeled protein was eluted from the column by and the collected fractions were applied to ion exchange column. Purity and the concentration of the recombinant proteins were determined by sodium dodecylsulfate-polyacrylamide gel electrophoresis and bicinchoninic acid assay, respectively. The DAN labeling yield of eENTH, which was calculated as the molar ratio of DAN (determined spectrophotometrically at 391 nm using its extinction coefficient of 20,000 cm^−1 M^−1) to protein, was typically 60-70%.
LUVs were prepared by extrusion using a 100 nm-pore membrane. GUVs were prepared by electroformation. […]

[2] = molecular target: T2, epsin 1 ENTH domain (SEQ ID NO: 1) variant C96A (Homo sapiens, UniProt Q9Y6I3, C96A); assay: SPR equilibrium binding of epsin1 ENTH C96A to phosphoinositide-containing LUVs
T2 construct: The Epsin1 ENTH domain (1-158 amino acids) was subcloned; GST (C, cleaved yes); made in house; host or cells: E. coli BL21 RIL codon plus
T2 sequence (Q9Y6I3 1-158 C96A): T1 sequence (Q9Y6I3 1-158 S4W/M10C/C96A) with W4S, C10M
From the text: as §1, §2, §3
E. coli BL21 RIL codon plus (Stratagene) cells were used for protein expression. Cells were grown in Luria broth media containing 100 μg/ml of ampicillin at 37° C. 0.1 mM of Isopropyl β-D-1-thiogalactopyranoside was added to induce over-expression of recombinant proteins when the OD600 reached 0.5-0.8 and cells were grown for additional 6 to 10 hours at 25° C. Cells were harvested by centrifugation and cell pellets were resuspended in 50 mM Tris-HCl buffer (pH 7.4) containing 160 mM KCl, 1 mM phenylmethanesulphonylfluoride, and 5 mM of dithiothreitol (DTT). Cells were lysed by sonication and the lysate was collected by centrifugation at 4° C. […] Purity and the concentration of the recombinant proteins were determined by sodium dodecylsulfate-polyacrylamide gel electrophoresis and bicinchoninic acid assay, respectively. The DAN labeling yield of eENTH, which was calculated as the molar ratio of DAN (determined spectrophotometrically at 391 nm using its extinction coefficient of 20,000 cm^−1 M^−1) to protein, was typically 60-70%. […]

[3] = molecular target: T3, epsin 1 ENTH domain, wild type, SEQ ID NO: 1 (Homo sapiens, UniProt Q9Y6I3); assay: SPR equilibrium binding of epsin1 ENTH domain (wild type) to phosphoinositide-containing LUVs; details: SPR
T3 construct: The Epsin1 ENTH domain (1-158 amino acids) was subcloned; GST (C, cleaved yes); made in house; host or cells: E. coli BL21 RIL codon plus
T3 sequence (Q9Y6I3 1-158): T1 sequence (Q9Y6I3 1-158 S4W/M10C/C96A) with W4S, C10M, A96C
From the text: as §1, §2
The Epsin1 ENTH domain (1-158 amino acids) was subcloned into the pGEX4T-1 vector and expressed as a […] glutathione S-transferase (GST)-tagged protein. The ENTH domain amino acid sequence is as follows:
as §4, with “Thrombin (Invitrogen) was added to column to remove the GST tag and the mixture was incubated at 4° C. for 10 hours. The labeled protein was eluted from the column by and the collected fractions were applied to ion exchange column.” left out, “60-70%. […]” for “60-70%.”

PLCδ-PH (PLCδ PH domain) = molecular target: T4, PLCδ-PH (PLCδ PH domain) (Homo sapiens, UniProt P51178); assay: SPR equilibrium binding of PLCδ-PH to phosphoinositide-containing LUVs
T4 sequence (P51178 21-130 limits assumed): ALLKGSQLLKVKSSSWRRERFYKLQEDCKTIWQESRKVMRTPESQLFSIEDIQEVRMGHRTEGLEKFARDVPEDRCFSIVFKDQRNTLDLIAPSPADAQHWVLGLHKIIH
Experimental: as §2, with “1, an L1 sensor chip was coated with POPC/POPS/PtdIns(4,5)P2 (77:20:3) LUVs.” left out
LUVs were prepared by extrusion using a 100 nm-pore membrane. GUVs were prepared by electroformation. The lipid mixture were prepared in chloroform/methanol (3:1) at a total concentration of 0.4 mg/ml, then the lipid solution was spread onto the indium-tin oxide electrode surface and the lipid was dried under vacuum to form a uniform lipid film. Vesicles were grown in a sucrose solution (350 mM) while an electric field (3V, 20 Hz frequency) was applied for 5 hour at room temperature. After 1 to […] of sucrose-loaded GUV solution was added into a well glued onto a coverslip that was placed on the microscope stage. The well contained […] of 20 mM Tris-HCl buffer, pH 7.4, with 0.16 M KCl solution. The diameter of GUVs ranged from 5 to 30 μm.

NIH 3T3 cells [4] = assay: Change of plasma membrane [PtdIns(4,5)P2]s on stimulation, quantified with DAN-eENTH; type: cell-based; details: 1 μM insulin
Experimental: (§5) DAN-eENTH was delivered into NIH 3T3 cells by microinjection for live cell imaging and determined cellular [PtdIns(4,5)P2] by the ratiometric analysis. The green channel (FIG. 10a) representing both PtdIns(4,5)P2-bound and free DAN-eENTH illustrates that the sensor is successfully loaded into cells and randomly distributed in the cytosol, the nucleus, and the plasma membrane. […] When [PtdIns(4,5)P2]s in the PM was determined in a time-dependent manner by either single-channel 9FB) or ratiometric (FB/FG) analysis using the calibration curve (FIG. 2c or 2d), dramatic local heterogeneity of [PtdIns(4,5)P2]s was clearly visible at a given time ((FIG. 9c). […] In FIG. 7, the different angles represent different locations in the plasma membrane. […] That is, PtdIns(4,5)P2 can be locally enriched, but only transiently, in the quiescent cells. […] Also, the change in [PtdIns(4,5)P2]s was monitored in response to physiological stimuli, ATP and insulin. […]
(§6) NIH 3T3 cells were seeded into 8-well plates and grown at 37° C. in a humidified atmosphere of 95% air and 5% CO2 in Dulbecco's modified Eagle's medium (DMEM) (Invitrogen) supplemented with 10% (v/v) fatal bovine serum (Invitrogen). […] Thus, the cellular [PtdIns(4,5)P2] was determined from the observed (FB/FG) values using the in vitro calibration curve determined using POPC/POPS/PtdIns(4,5)P2 GUVs.

NIH 3T3 cells [5] = assay: Cellular distribution of microinjected sensor in live cells; type: cell-based; details: FIG. 6
Experimental: as §5, §6

[6] = Equilibrium SPR binding to other phosphoinositide vesicles; details: POPC/POPS/phosphoinositide (77:20:3) vesicles; no significant SPR response signal with injection of 1 μM protein
[7] = POPC/POPS/PtdIns(3,4)P2 (77:20:3) LUVs, read-out: Kd for PtdIns(3,4)P2
[8] = POPC/POPS/PtdIns(3,4,5)P3 (77:20:3) LUVs, read-out: Kd for PtdIns(3,4,5)P3

Molecule: insulin
- reduction in spatially averaged [PtdIns(4,5)P2]s in the plasma membrane (NIH 3T3 cells [4]): ~10%

B1: DAN-eENTH: eENTH (M10C, C96A, S4W) linked via C10 to 2-dimethylamino-6-acyl-naphthalene (DAN); PtdIns(4,5)P2 sensor (conjugate)
chain: T1 sequence (Q9Y6I3 1-158 S4W/M10C/C96A)
modifications: DAN fluorophore on Cys10; Modified ENTH domain of Epsin 1.
notes: eENTH (M10C, C96A, S4W) linked via C10 to 2-dimethylamino-6-acyl-naphthalene (DAN); PtdIns(4,5)P2 sensor
- cellular localization after microinjection (NIH 3T3 cells [5]): mainly enriched in the plasma membrane
- Kd [6]: > 1000 nM

B2: C96A/S4W (eENTH): engineered ENTH domain of epsin 1 with substitutions M10C, C96A, S4W, SEQ ID NO:2 (protein)
chain: T1 sequence (Q9Y6I3 1-158 S4W/M10C/C96A)
modifications: Modified ENTH domain of Epsin 1.
- Kd [6]: > 1000 nM

More lines, now with the values ahead:

- Kd [1, 7]: 50 nM
- Kd [2, 7]: 190 nM
- Kd [3, 7]: 180 nM
- Kd (PLCδ-PH (PLCδ PH domain); [7]): 350 nM
Molecule: CCCCCCCCCCCCCCCC(=O)OC[C@H](COP(=O)(O)O[C@H]1[C@H](O)[C@@H](O)[C@H](OP(=O)(O)O)[C@@H](OP(=O)(O)O)[C@H]1O)OC(=O)CCCCCCCCCCCCCCC [PtdIns(3,4)P2]

- Kd [1, 8]: 44 nM
- Kd [2, 8]: 200 nM
- Kd [3, 8]: 210 nM
- Kd (PLCδ-PH (PLCδ PH domain); [8]): 480 nM
Molecule: CCCCCCCCCCCCCCCC(=O)OC[C@H](COP(=O)(O)O[C@H]1[C@H](O)[C@@H](OP(=O)(O)O)[C@H](OP(=O)(O)O)[C@@H](OP(=O)(O)O)[C@H]1O)OC(=O)CCCCCCCCCCCCCCC [PtdIns(3,4,5)P3, phosphatidylinositol-3,4,5-trisphosphate]

- Kd [6]: > 1000 nM
B3: Wild Type: ENTH domain of epsin 1, amino acids 1-158, SEQ ID NO:1 (protein)
chain: T1 sequence (Q9Y6I3 1-158 S4W/M10C/C96A) with W4S, C10M, A96C
modifications: ENTH domain of Epsin 1.
